Source: the supplement of paper PMC11208160

Test: recombinant barcode read abundance after kanamycin selection (control-corrected) (log10(CPM+1)); higher = more efficient recombination; sequences stand for … in AGTGCAGAGAAAATCGGCCAGTTTTCTCTGCCTGCAGTCCGCATGCCGT…AGATTTATGCAGCGGACTGCCTTTCTCCCAAAGTGATAAACCGGACAGTATCATGGACCGGTTTTCCCGGTAATCCGTATTTGCAAGGTTGGTTTCACT; site = the 11-nt target
Method: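 Pooled E. coli target-specificity screen for the IS621 bridge recombinase. Each library plasmid pairs an 11-nt target (CT core) with a bridge RNA whose target-binding loop (9-nt LTG + 4-nt RTG) is reprogrammed; the rest of the 177-nt WT IS621 bridge RNA scaffold is fixed. The plasmid is co-electroporated with a WT donor plasmid; recombinase is induced with 0.1 mM IPTG and recombinants are selected on kanamycin. Recombinant barcodes are sequenced, converted to CPM, averaged over two biological replicates and corrected by the unselected control CPM. Molecule = full bridge RNA written as DNA: LTG = specificity nt 1-9, RTG = reverse complement of specificity nt 8-11, in the WT scaffold.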
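Also: IS621 recombinase and bridge RNA in Escherichia coli cells.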

Row | Sequence | recombinant barcode read abundance (log10)
1 | AGACAGACTTGGGTTCTAACCTGTTGCGT (site AGACAGACTAC) | 3.32
2 | AGACAGACTTGGGTTCTAACCTGTTGCGT (site CAGAGCTCTCG) | 0.0309
3 | AGACCATCTTGGGTTCTAACCTGTTGCCT (site AGACCATCTAG) | 0.751
4 | AGACCATCTTGGGTTCTAACCTGTTGCCT (site AGATCATCTAA) | 0.162
5 | AGACCCTCTTGGGTTCTAACCTGTTGCCT (site AGACCCTCTAG) | 2.91
6 | AGACCCTCTTGGGTTCTAACCTGTTGCCT (site CGACCCTCTAG) | 0.728
7 | AGACCCTCTTGGGTTCTAACCTGTTGCCT (site GGACCCTCTAG) | 0.304
8 | AGACCCTCTTGGGTTCTAACCTGTTGCCT (site TGACCCTCTAG) | 1.3
9 | AGACGACCTTGGGTTCTAACCTGTTGCGG (site AGACGACCTCC) | 2.95
10 | AGACGACCTTGGGTTCTAACCTGTTGCGG (site GTCATGTCTGA) | 0.016
11 | AGACTAACTTGGGTTCTAACCTGTTGCCT (site AAACTAACTAG) | 0.124
12 | AGACTAACTTGGGTTCTAACCTGTTGCCT (site ACACTAACTAG) | 0.0816
13 | AGACTAACTTGGGTTCTAACCTGTTGCCT (site AGACTAACTAG) | 1.54
14 | AGACTAACTTGGGTTCTAACCTGTTGCCT (site ATACTAACTAG) | 0.29
15 | AGACTCCCTTGGGTTCTAACCTGTTGCAC (site ACACGCCCTGT) | 0.0745
16 | AGACTCCCTTGGGTTCTAACCTGTTGCAC (site AGACTCCCTGT) | 2.08
17 | AGACTGACTTGGGTTCTAACCTGTTGCGG (site AGACTGACTCC) | 2.18
18 | AGACTGACTTGGGTTCTAACCTGTTGCGG (site TCCAAATCTAG) | 0.232
19 | AGACTGGCTTGGGTTCTAACCTGTTGCCT (site AGACTGGCTAG) | 1.03
20 | AGACTGGCTTGGGTTCTAACCTGTTGCCT (site CGACAGGCTAG) | 0.176
21 | AGAGAGGCTTGGGTTCTAACCTGTTGCGG (site AGAGAGGCTCC) | 1.82

Row | Sequence | recombinant barcode read abundance (log10)
22 | AGAGAGGCTTGGGTTCTAACCTGTTGCGG (site CGAGAGTCTCC) | 0.125
23 | AGAGAGTCTTGGGTTCTAACCTGTTGCTT (site AGAGAGTCTAA) | 1.99
24 | AGAGAGTCTTGGGTTCTAACCTGTTGCTT (site ATAGAGTCTAA) | 0.602
25 | AGAGCGACTTGGGTTCTAACCTGTTGCCT (site AGAGAGACTAG) | 0.127
26 | AGAGCGACTTGGGTTCTAACCTGTTGCCT (site AGAGCGACTAG) | 0.727
27 | AGAGCGACTTGGGTTCTAACCTGTTGCCT (site AGAGGGACTAG) | 0.587
28 | AGAGCGACTTGGGTTCTAACCTGTTGCCT (site AGAGTGACTAG) | 0.0332
29 | AGAGCGACTTGGGTTCTAACCTGTTGCTA (site AGAGCGACTTA) | 0.654
30 | AGAGCGACTTGGGTTCTAACCTGTTGCTA (site CTCTACCCTCT) | 0.147
31 | AGAGCTCCTTGGGTTCTAACCTGTTGCCG (site AGAGCTCCTCG) | 1.03
32 | AGAGCTCCTTGGGTTCTAACCTGTTGCCG (site AGATCTCCTAG) | 0.468
33 | AGAGGAGCTTGGGTTCTAACCTGTTGCAG (site AGAGATGCTCT) | 0.115
34 | AGAGGAGCTTGGGTTCTAACCTGTTGCAG (site AGAGGAGCTCT) | 1.79
35 | AGAGGGACTTGGGTTCTAACCTGTTGCCT (site AGAGAGACTAG) | 1.25
36 | AGAGGGACTTGGGTTCTAACCTGTTGCCT (site AGAGCGACTAG) | 0.0189
37 | AGAGGGACTTGGGTTCTAACCTGTTGCCT (site AGAGGGACTAG) | 2.34
38 | AGAGGGACTTGGGTTCTAACCTGTTGCCT (site AGAGTGACTAG) | 0.0172
39 | AGAGTAGCTTGGGTTCTAACCTGTTGCAC (site AGAGTAGCTGT) | 2.41
40 | AGAGTAGCTTGGGTTCTAACCTGTTGCAC (site GTTTATACTTG) | 0.0243
41 | AGAGTAGCTTGGGTTCTAACCTGTTGCTA (site AGAGTAGCTTA) | 1.31
42 | AGAGTAGCTTGGGTTCTAACCTGTTGCTA (site CTCCCGACTGC) | 0.0353

Row | Sequence | recombinant barcode read abundance (log10)
43 | AGATAGCCTTGGGTTCTAACCTGTTGCCT (site AGATAGCCTAG) | 2.01
44 | AGATAGCCTTGGGTTCTAACCTGTTGCCT (site CGATAGCCTAG) | 0.102
45 | AGATAGCCTTGGGTTCTAACCTGTTGCCT (site GGATAGCCTAG) | 0.157
46 | AGATAGCCTTGGGTTCTAACCTGTTGCCT (site TGATAGCCTAG) | 0.206
47 | AGATCCACTTGGGTTCTAACCTGTTGCCT (site AGATCCACTAG) | 0.832
48 | AGATCCACTTGGGTTCTAACCTGTTGCCT (site CGATCCACTAG) | 0.0967
49 | AGATCCACTTGGGTTCTAACCTGTTGCCT (site GGATCCACTAG) | 0.0847
50 | AGATCCACTTGGGTTCTAACCTGTTGCCT (site TGATCCACTAG) | 0.0724
51 | AGATGGACTTGGGTTCTAACCTGTTGCAG (site AGATGGACTCT) | 2.52
52 | AGATGGACTTGGGTTCTAACCTGTTGCAG (site AGATGGCCTAT) | 0.0344
53 | AGATTCGCTTGGGTTCTAACCTGTTGCCG (site AGATTCCCTCG) | 0.0487
54 | AGATTCGCTTGGGTTCTAACCTGTTGCCG (site AGATTCGCTCG) | 0.941
55 | AGATTTACTTGGGTTCTAACCTGTTGCCT (site AAACTTACTAG) | 1.28
56 | AGATTTACTTGGGTTCTAACCTGTTGCCT (site AGATTTACTAG) | 0.143
57 | AGCACGACTTGGGTTCTAACCTGTTGCTG (site AGCACGACTCA) | 0.684
58 | AGCACGACTTGGGTTCTAACCTGTTGCTG (site AGCAGGACTCG) | 0.157
59 | AGCAGAGCTTGGGTTCTAACCTGTTGCTG (site AGCAGAGCTCA) | 1.39
60 | AGCAGAGCTTGGGTTCTAACCTGTTGCTG (site AGCAGAGCTCC) | 1.94
61 | AGCAGAGCTTGGGTTCTAACCTGTTGCTG (site AGCAGAGCTCG) | 0.133
62 | AGCAGAGCTTGGGTTCTAACCTGTTGCTG (site AGCAGAGCTCT) | 0.93
63 | AGCATCACTTGGGTTCTAACCTGTTGCCT (site AACATCACTCG) | 0.135

Row | Sequence | recombinant barcode read abundance (log10)
64 | AGCATCACTTGGGTTCTAACCTGTTGCCT (site AGCATCACTAG) | 0.499
65 | AGCATTGCTTGGGTTCTAACCTGTTGCCT (site AGCATTGCTAG) | 0.235
66 | AGCATTGCTTGGGTTCTAACCTGTTGCCT (site AGCCTTGCTAG) | 0.629
67 | AGCATTGCTTGGGTTCTAACCTGTTGCCT (site AGCGTTGCTAG) | 0.724
68 | AGCATTGCTTGGGTTCTAACCTGTTGCCT (site AGCTTTGCTAG) | 0.0996
69 | AGCCACCCTTGGGTTCTAACCTGTTGCCT (site AGCCACACTAG) | 0.201
70 | AGCCACCCTTGGGTTCTAACCTGTTGCCT (site AGCCACCCTAG) | 0.425
71 | AGCCACCCTTGGGTTCTAACCTGTTGCCT (site AGCCACGCTAG) | 0.265
72 | AGCCACCCTTGGGTTCTAACCTGTTGCCT (site AGCCACTCTAG) | 0.522
73 | AGCCGCCCTTGGGTTCTAACCTGTTGCAT (site AGCCGCCCTAT) | 0.172
74 | AGCCGCCCTTGGGTTCTAACCTGTTGCAT (site CGCCGCCCTAG) | 0.119
75 | AGCCGTACTTGGGTTCTAACCTGTTGCCT (site AGACGTACTAG) | 0.129
76 | AGCCGTACTTGGGTTCTAACCTGTTGCCT (site AGCCGTACTAG) | 0.341
77 | AGCCGTACTTGGGTTCTAACCTGTTGCCT (site AGGCGTACTAG) | 0.318
78 | AGCCGTACTTGGGTTCTAACCTGTTGCCT (site AGTCGTACTAG) | 0.0183
79 | AGCCTGCCTTGGGTTCTAACCTGTTGCCT (site AGCCTGACTAG) | 0.0617
80 | AGCCTGCCTTGGGTTCTAACCTGTTGCCT (site AGCCTGCCTAG) | 0.389
81 | AGCCTGCCTTGGGTTCTAACCTGTTGCCT (site AGCCTGGCTAG) | 0.549
82 | AGCCTGCCTTGGGTTCTAACCTGTTGCCT (site AGCCTGTCTAG) | 0.0826
